Assay results reported in PubChem BioAssay AID2060897 (Molecular Pharmacology Branch, DTP, NCI, 2025).

System: 966289-007-R4-J1-PDC complex spheroid viability
Experiment: Anticancer human tumor 966289-007-R4-J1-PDC patient-derived pancreatic adenocarcinoma cell line growth inhibition [RAS]
Conditions: for IC50: curve of first compound; for viability, T/C: stronger effect = lower value; active = viability on the fitted dose curve at most 10% of control; inactive = the rest
Text: RAS pathway inhibitors in Combinations in Complex Spheroids
A high-throughput screen of multi-cell type tumor spheroids was designed to identify active combinations of RAS pathway inhibitors and targeted small molecules. Complex spheroids include a stromal component modeled by human endothelial cells (HUVEC) and fibroblasts modeled by human mesenchymal stem cells (MSCs). The concentration ranges selected for each drug and investigational agent were based upon clinically achievable concentrations if the clinical Cmax of the agent was known.
Compounds. The drugs and investigational agents: abemaciclib (NSC768073), cobimetinib (NSC768068), divarasib (GDC6063, NSC841802), docetaxel (NSC628503), GDC-1971 (RLY-1971, NSC841576), gemcitabine (NSC613327), inavolisib (NSC800729), ipatasertib (NSC767898), KB-0742 (NSC834161), MRTX-1133 (NSC836407), osimertinib (NSC779217), RMC-4630 (NSC839698), RMC-6236 (NSC851965), RMC-6291 (NSC852671), Ro-3306 (NSC812927), sapanisertib (NSC764658), SN-38 (NSC673596), staurosporine (NSC755774), SY5609 (NSC837396), and tovorafenib (DAY101, NSC766906), were obtained from the National Cancer Institute (NCI) Developmental Therapeutics Program Chemical Repository. The FDA-approved anticancer drug set is available from the NCI Developmental Therapeutics Program. […] The stock solutions were prepared in dimethyl sulfoxide (DMSO, Sigma-Aldrich, St. Louis, MO, cat. D2650) at 800-fold the tested concentration and stored at -70 degrees C prior to their use. All drugs and investigational agents were tested over a range starting from a high concentration at or near the clinical Cmax and decreasing in half-log increments. If the clinical Cmax for an agent had not been determined, the highest concentration tested was 10 microM.
Cell Culture. All cells were maintained in an incubator at 37 degrees C and 5% CO2 with 95% humidity. The PDC lines were cultured according to standard operating procedures established by the NCI PDMR. All PDCs were thawed and cultured in Matrigel-coated flasks prepared with a working solution of 1X Ham's F-12 nutrient mix, without supplementation (Invitrogen, Waltham, MA, cat. 11765054), 100 U/mL penicillin-streptomycin (Invitrogen, cat. 15140122), and 2.5% Matrigel (Corning Inc., Corning, NY, cat. 354248) for the first three passages. The 362531-283-R-J2-PDC and 782815-120-R-J1-PDC lines were cultured in 6C/Colon 1B media, which includes advanced DMEM/F-12 (Thermo Fisher Scientific, cat. 12634028), 10 mM HEPES (Thermo Fisher Scientific, cat. 15630080), 1X GlutaMAX supplement (Thermo Fisher Scientific, cat. 35050061), 0.1 mg/mL primocin (InvivoGen, San Diego, CA, cat. ant-pm-2), 10% defined fetal bovine serum, heat inactivated (HyClone Laboratories Inc., Logan, UT, cat. SH30070.03HI), 50% L-WRN conditioned media (ATCC, cat. CRL-3276), 1.25 mM N-Acetyl-L-cysteine (Sigma-Aldrich, cat. A9165), 10 mM nicotinamide (Sigma-Aldrich, cat. N0636), 1X B-27 supplement (Thermo Fisher Scientific, cat. 17504044), 1X N-2 supplement (Thermo Fisher Scientific, cat. 17502048), 50 ng/mL human EGF (Thermo Fisher Scientific, cat. PHG0311), and 10 microM Y-27632 dihydrochloride (Tocris Bioscience, cat. 1254). The K12877-001-R-J1-PDC line was cultured in 6I media, which includes all 6C/Colon 1B media plus 10 ng/mL human FGF-10 (PeproTech, cat. 100-26), 1 ng/mL human FGF-2 (PeproTech, cat. 100-18B), 1 µM prostaglandin E2 (Tocris Bioscience, cat. 2296), […] hydrocortisone (Sigma-Aldrich, cat. H4001), and […] bovine insulin (Sigma-Aldrich, cat. I6634). The K86415-001-R-J1-PDC line was cultured in 6D media, which includes all 6C/Colon 1B media components minus the L-WRN conditioned media. The 485176-168-R4-J1-PDC was cultured in PANC media, which includes all 6C/Colon 1B media plus 100 ng/mL human FGF-10 (PeproTech, cat. 100-26), 500 nM SB-431542 (Selleckchem, cat. S1067), and 10 nM gastrin (Tocris Bioscience, cat. 3006). […]

[1] = second compound 0.00316 µM, first compound 0.00316 µM
[2] = second compound 0.00316 µM, first compound 0.01 µM
[3] = second compound 0.00316 µM, first compound 0.0316 µM
[4] = second compound 0.00316 µM, first compound 0.1 µM
[5] = second compound 0.00316 µM, first compound 0.316 µM
[6] = second compound 0.00316 µM, first compound 1 µM
[7] = second compound 0.01 µM, first compound 0.00316 µM
[8] = second compound 0.01 µM, first compound 0.01 µM
[9] = second compound 0.01 µM, first compound 0.0316 µM
[10] = second compound 0.01 µM, first compound 0.1 µM
[11] = second compound 0.01 µM, first compound 0.316 µM
[12] = second compound 0.01 µM, first compound 1 µM
[13] = second compound 0.0316 µM, first compound 0.00316 µM
[14] = second compound 0.0316 µM, first compound 0.01 µM
[15] = second compound 0.0316 µM, first compound 0.0316 µM
[16] = second compound 0.0316 µM, first compound 0.1 µM
[17] = second compound 0.0316 µM, first compound 0.316 µM
[18] = second compound 0.0316 µM, first compound 1 µM
[19] = second compound 0.1 µM, first compound 0.00316 µM
[20] = second compound 0.1 µM, first compound 0.01 µM
[21] = second compound 0.1 µM, first compound 0.0316 µM
[22] = second compound 0.1 µM, first compound 0.1 µM
[23] = second compound 0.1 µM, first compound 0.316 µM
[24] = second compound 0.1 µM, first compound 1 µM
[25] = second compound 0.316 µM, first compound 0.00316 µM
[26] = second compound 0.316 µM, first compound 0.01 µM
[27] = second compound 0.316 µM, first compound 0.0316 µM
[28] = second compound 0.316 µM, first compound 0.1 µM
[29] = second compound 0.316 µM, first compound 0.316 µM
[30] = second compound 0.316 µM, first compound 1 µM
[31] = second compound 1 µM, first compound 0.00316 µM
[32] = second compound 1 µM, first compound 0.01 µM
[33] = second compound 1 µM, first compound 0.0316 µM
[34] = second compound 1 µM, first compound 0.1 µM
[35] = second compound 1 µM, first compound 0.316 µM
[36] = second compound 1 µM, first compound 1 µM
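Note: spheroids exposed to agents for one week before readout.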
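Throughout, for viability, T/C: percent viability relative to DMSO vehicle control wells as 100%.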

O=C(c1ccc(F)c(F)c1Nc1ccc(I)cc1F)N1CC(O)([C@@H]2CCCCN2)C1 + C=CC(=O)N1CCN(c2nc(OCC3CCCN3C)nc3c(F)c(-c4nc(N)cc(C)c4C(F)(F)F)c(Cl)cc23)C(C)C1
509 nM: IC50 (second compound 0.00316 µM)
inactive: viability, T/C [1] 98.1% | viability, T/C [2] 87.5% | viability, T/C [3] 77.2% | viability, T/C [4] 72.3% | viability, T/C [5] 63.5% | viability, T/C [6] 36.4% | viability, T/C [7] 78.5% | viability, T/C [8] 80.9% | viability, T/C [9] 71.2% | viability, T/C [10] 75.8% | viability, T/C [11] 62.9% | viability, T/C [12] 40.3% | viability, T/C [13] 94.6% | viability, T/C [14] 75.3% | viability, T/C [15] 76.3% | viability, T/C [16] 70.3% | viability, T/C [17] 66.5% | viability, T/C [18] 40.8% | viability, T/C [19] 95.9% | viability, T/C [20] 70.3% | viability, T/C [21] 85.1% | viability, T/C [22] 72.2% | viability, T/C [23] 63.5% | viability, T/C [24] 38.2% | viability, T/C [25] 84% | viability, T/C [26] 82.6% | viability, T/C [27] 78.6% | viability, T/C [28] 76.2% | viability, T/C [29] 68% | viability, T/C [30] 43.6% | viability, T/C [31] 70.2% | viability, T/C [32] 71.1% | viability, T/C [33] 71.3% | viability, T/C [34] 77.2% | viability, T/C [35] 63.5% | viability, T/C [36] 42.7%
570 nM: IC50 (second compound 0.1 µM)
740 nM: IC50 (second compound 0.316 µM)
648 nM: IC50 (second compound 0.0316 µM)
618 nM: IC50 (second compound 0.01 µM)
694 nM: IC50 (second compound 1 µM)

Nc1ccn(C2OC(CO)C(O)C2(F)F)c(=O)n1 (stereo unspecified) + C=CC(=O)N1CCN(c2nc(OCC3CCCN3C)nc3c(F)c(-c4nc(N)cc(C)c4C(F)(F)F)c(Cl)cc23)C(C)C1
6.89 nM: IC50 (second compound 0.00316 µM)
6.83 nM: IC50 (second compound 1 µM)
6.55 nM: IC50 (second compound 0.316 µM)
6.58 nM: IC50 (second compound 0.1 µM)
active: viability, T/C [3] 1.32% | viability, T/C [4] 1.25% | viability, T/C [5] 1.36% | viability, T/C [6] 1.34% | viability, T/C [9] 1.5% | viability, T/C [10] 1.37% | viability, T/C [11] 1.44% | viability, T/C [12] 1.42% | viability, T/C [15] 1.29% | viability, T/C [16] 1.37% | viability, T/C [17] 1.47% | viability, T/C [18] 1.19% | viability, T/C [21] 1.5% | viability, T/C [22] 1.39% | viability, T/C [23] 1.15% | viability, T/C [24] 1.1% | viability, T/C [27] 1.51% | viability, T/C [28] 1.29% | viability, T/C [29] 1.52% | viability, T/C [30] 1.25% | viability, T/C [33] 1.78% | viability, T/C [34] 1.63% | viability, T/C [35] 1.74% | viability, T/C [36] 1.61%
6.88 nM: IC50 (second compound 0.0316 µM)
inactive: viability, T/C [1] 108% | viability, T/C [2] 22.2% | viability, T/C [7] 113% | viability, T/C [8] 36.4% | viability, T/C [13] 100% | viability, T/C [14] 25.8% | viability, T/C [19] 89.6% | viability, T/C [20] 27.3% | viability, T/C [25] 93.6% | viability, T/C [26] 24.8% | viability, T/C [31] 93.5% | viability, T/C [32] 28.4%
8.14 nM: IC50 (second compound 0.01 µM)

Cc1nc(N2CCC3(CC2)COC(C)C3N)c(CO)nc1Sc1ccnc(N)c1Cl (stereo unspecified) + C=CC(=O)N1CCN(c2nc(OCC3CCCN3C)nc3c(F)c(-c4nc(N)cc(C)c4C(F)(F)F)c(Cl)cc23)C(C)C1
> 10000 nM: IC50 (second compound 0.00316 µM) | IC50 (second compound 0.01 µM) | IC50 (second compound 0.0316 µM) | IC50 (second compound 0.1 µM) | IC50 (second compound 0.316 µM) | IC50 (second compound 1 µM)
inactive: viability, T/C [3] 100% | viability, T/C [4] 90.2% | viability, T/C [5] 121% | viability, T/C [6] 105% | viability, T/C (second compound 0.00316 µM, first compound 3.16 µM) 106% | viability, T/C (second compound 0.00316 µM, first compound 10 µM) 80% | viability, T/C [9] 109% | viability, T/C [10] 89.6% | viability, T/C [11] 109% | viability, T/C [12] 94.6% | viability, T/C (second compound 0.01 µM, first compound 3.16 µM) 100% | viability, T/C (second compound 0.01 µM, first compound 10 µM) 98.6% | viability, T/C [15] 106% | viability, T/C [16] 97.9% | viability, T/C [17] 110% | viability, T/C [18] 105% | viability, T/C (second compound 0.0316 µM, first compound 3.16 µM) 108% | viability, T/C (second compound 0.0316 µM, first compound 10 µM) 84.7% | viability, T/C [21] 91.1% | viability, T/C [22] 107% | viability, T/C [23] 107% | viability, T/C [24] 99.9% | viability, T/C (second compound 0.1 µM, first compound 3.16 µM) 101% | viability, T/C (second compound 0.1 µM, first compound 10 µM) 81.6% | viability, T/C [27] 111% | viability, T/C [28] 102% | viability, T/C [29] 123% | viability, T/C [30] 114% | viability, T/C (second compound 0.316 µM, first compound 3.16 µM) 97.8% | viability, T/C (second compound 0.316 µM, first compound 10 µM) 101% | viability, T/C [33] 91.3% | viability, T/C [34] 98.1% | viability, T/C [35] 112% | viability, T/C [36] 107% | viability, T/C (second compound 1 µM, first compound 3.16 µM) 104% | viability, T/C (second compound 1 µM, first compound 10 µM) 97.1%
